From article PMC12529149, “Chemical and Antiplasmodial Investigations on Carapa-Derived Gedunin Derivatives and Semisynthetic 6- and 7‑Substituted Gedunin Analogues from the Brazilian Amazon” (ACS Omega, 2025)
“And” between values parts separate entries of the source, which are not always exact repeats. Identical values can stand only once. Like-named read-outs stand apart in the source and are kept apart here.

Legend:
[1] = system: P. falciparum D10 strain; design: method as in literature (number not shown); details: ref literature (number not shown); cited from earlier work
[2] = system: P. falciparum FCR3 strain; design: method as in literature (numbers not shown); details: ref literature (numbers not shown); cited from earlier work
[3] = system: Plasmodium berghei; details: P. berghei-infected mice, cited from earlier work
[4] = system: human mammary epithelial cells (HME); design: method as in literature (number not shown); details: ref literature (number not shown); cited from earlier work
[5] = system: P. falciparum K1 strain vs MRC-5 human fibroblasts; assay: Selectivity index, IC50 (human fibroblasts) ÷ IC50 (P. falciparum); format: cell-based, Plasmodium falciparum
Source text: Calculation of the selectivity index (SI) using the following formula afforded the relative toxicity of each sample to human fibroblasts and to P. falciparum blood stages: SI = IC50 (human fibroblasts) ÷ IC50 (P. falciparum).

[6] = system: MRC-5 human fibroblasts; assay: Cytotoxicity/cell viability assay (Alamar blue); format: cell-based; details: MRC5, MRC-5, tested at 50 μg/mL for 48 h, read-out: fibroblasts IC50
Experimental: Medical Research Council cell strain 5 (MRC-5) human fetal fibroblasts were cultivated in Dulbecco′s modified Eagle’s medium (DMEM) supplemented with 10% bovine fetal serum and 1% antibiotic at 37 °C under an atmosphere of 5% CO2. Cell viability assessment relied on the Alamar blue method. […] Doxorubicin at concentrations of 0.312, 0.625, 1.25, 2.50, 5.00, 10.0, and 20.0 μM was used as a positive control for cell death. The negative control wells received DMSO (sample diluent) at 0.1%. In preparation for the assay, this method involved plating 0.5 × 10^4 cells/well on 96 well test plates and incubating for 24 h under the same conditions used for cell culture. This initial 24 h period was necessary for cell adhesion. The assay consisted of triplicate addition of diluted samples and controls to wells followed by 48 h of incubation. For quantification of viable cells, 10 μL of 0.4% Alamar blue (Sigma-Aldrich)–which works out to an in-well concentration of 0.02%–were added to each well 3 h before the end of the treatment. Alamar blue was allowed to react for 3 h followed by quantification of the optical density (OD) of each well at an excitation wavelength of 465 nm and emission wavelength of 540 nm using an ELISA plate reader (DTX-800, Beckman Coulter). Comparison of individual sample viability OD to that of controls (blanks) afforded the cell viability. Interpolation of the nonlinear curve using GraphPad Prism software permitted the calculation of estimates of the sample IC50 values compared to drug-free controls.

[7] = system: K1 strain of Plasmodium falciparum; assay: In vitro susceptibility assay (microtest), P. falciparum K1 growth inhibition; format: cell-based; details: Plasmodium falciparum, K1, 48 h, K1 strain, 48 h, CI95 in brackets; read-out: P. falciparum IC50 (CI95)
Experimental: In vitro culture of the K1 strain of P. falciparum (MRA-159, MR4, ATCC, Manassas, Virginia, USA) proceeded following an established method with modifications. Briefly, this method involved the growth of parasites in human type A+ red blood cells and RPMI 1640 medium supplemented with 10% type A+ human plasma at 37 °C under an atmosphere of 5% O2, 5% CO2, and 90% N2.
As initial condition for the susceptibility assay, cultures were synchronized by treatment with 5% D-sorbitol, which provided young trophozoites (ring stages). Performance of the microtest followed a previously described procedure with modifications. Compounds were dissolved in DMSO with the aid of an ultrasound bath to provided stock solutions. […] These diluted samples were evaluated in duplicate in a 96-well test plate. A suspension of parasitized red blood cells (pRBCs) at 2% hematocrit and 1% parasitemia was added to each well. Microplate incubation proceeded for 48 h at 37 °C under the same atmosphere used for parasite culture in two independent experiments conducted on different days. Control wells contained chloroquine (0.003–2.5 μg/mL) and quinine (0.003–2.5 μg/mL). Six (6) control (blank) wells were prepared with pRBCs suspension. Six cosolvent control wells were prepared with 1% DMSO and pRBCs suspension. An average of these 12 controls defined drug-free (untreated) growth. After the incubation period, thin blood smears of the contents of each well were prepared on microscope slides. Optical microscopy was used to analyze the blood smears and establish the parasitemia of each well. Interpolation of the nonlinear curve using GraphPad Prism permitted the calculation of estimates of the sample concentrations able to inhibit 50% of parasite growth (IC50) compared to drug-free controls.

[8] = system: Hs578Bst cells; design: method as in literature (number not shown); details: immortalized, adult-derived normal cells; ref literature (number not shown); cited from earlier work
[9] = system: P. falciparum K1 strain; design: method as in earlier work; details: ref previous reports incl. authors' earlier work (numbers not shown); cited from earlier work
[10] = system: variety of P. falciparum strains; details: chloroquine-resistant (Dd2, K1, W2) and chloroquine-sensitive (3D7, D6, D10, FCR3, FCR3TC) strains; ref literature (numbers not shown); read-out: IC50, in vitro growth; cited from earlier work
[11] = system: P. falciparum W2 strain; design: method as in literature (numbers not shown); details: ref literature (numbers not shown), listed as gedunin; cited from earlier work
[12] = system: mouse mammary carcinoma (FM3A) cell cultures; design: method as in literature (number not shown); details: ref literature (number not shown); cited from earlier work
[13] = system: P. falciparum Dd2 strain; details: ref recent study on C. guianensis (number not shown); cited from earlier work
[14] = system: MRC-5 human fibroblasts; design: method as in authors' previous evaluation (number not shown); details: ref authors' previous evaluation (number not shown); cited from earlier work

## CC(=O)O[C@@H]1C[C@H]2C(C)(C)C(=O)C=C[C@]2(C)[C@H]2CC[C@@]3(C)[C@H](c4ccoc4)OC(=O)[C@H]4O[C@]43[C@@]21C (single isomer, unassigned) [compound 4, gedunin]
[1]
  IC50: 1660 ± 370 nM
[2]
  IC50: 2500 nM
[3]; oral or subcutaneous 50–90 mg/kg/day, ref literature (numbers not shown)
  suppression of parasite growth vs untreated controls: failed to significantly suppress parasite growth
[4]
  toxicity to HME cells: no appreciable toxicity
[5]
  selectivity index (SI): >37
[6]
  IC50: > 100000 nM
[7]
  IC50: 1.4 µg/mL and 2.8 µM
[8]
  toxicity to Hs578Bst cells: no appreciable toxicity
[9]
  IC50: 1500 nM
[10]
  IC50: 20 to 3100 nM
[11]
  IC50: 1310 ± 420 nM
[12]
  toxicity to FM3A cells: toxic
[13]
  IC50: 2800 ± 200 nM

## CC(=O)O[C@H]1[C@@H](OC(C)=O)[C@]2(C)[C@H](CC[C@@]3(C)[C@H](c4ccoc4)OC(=O)[C@H]4O[C@@]423)[C@@]2(C)C=CC(=O)C(C)(C)[C@H]12 [compound 12, 6α-acetoxygedunin]
[3]; oral 50–100 mg/kg/day, ref authors' earlier work (number not shown)
  suppression of parasitemia: 40–66%
[14]
  IC50: > 110000 nM
[9]
  IC50: 7000 nM
[13]
  IC50: 2100 ± 200 nM
